Reference: paper PMC6164231, “Evaluation of Chemical Strategies for Improving the Stability and Oral Toxicity of Insecticidal Peptides” (Biomedicines, 2018)

Experiments:
[1] = Midgut permeation assay (Ussing chamber); type: in vitro ADME, Manduca sexta; settings: 10 µM in luminal fluid, separate occasion / different batch of M. sexta, comparison with 1,4-SeSe-Hv1a, 1 h at 30 °C, HPLC/ELISA/MALDI-TOF MS, mean ± S.E.M, n = 11–12 tissues
Description: Flat-sheet preparations of the anterior midgut of Manduca sexta were mounted in Ussing-type chambers as previously described [39]. The lumen to hemolymph flux was determined by applying various concentrations of peptide (0.1, 1, and 10 μM) to the luminal side of the tissue and taking aliquots of saline from the hemolymph side after 1 h incubation at 30 °C (n = 9–19 tissues per peptide and dose). […] To check for damage to gut tissues that would allow leakage of peptides through the tissues, 1% amaranth, which is not absorbed across gut epithelia, was added to the luminal side of the tissue. Samples were analysed using a combination of liquid chromatography, enzyme-linked immunosorbent assay (ELISA), and matrix-assisted laser desorption/ionisation time-of-flight mass spectrometry (MALDI-TOF MS) to quantify the amount of intact peptide present on the hemolymph side of the tissue [39].
Chromatography was performed using a Beckman System Gold chromatographic system (Beckman Coulter Ltd., High Wycombe, UK) consisting of a dual pump programmable solvent module 126 and System Gold UV detector module 166. […] Samples were eluted using a linear gradient of 10–60% ACN/0.1% TFA over 50 min at a flow rate of 0.2 mL/min, and elution monitored at 214 nm. […] Absorbance was converted to peptide concentration using standard curves. […]

[2] = tested on: sheep blowflies (Lucilia cuprina); assay: Blowfly toxicity assay, injection; type: in vivo; settings: injected into ventro-lateral thoracic region, lethality after 24 h; three tests, n = 10 flies per dose
Description: Injection assays using sheep blowflies (Lucilia cuprina) were performed as described. Briefly, peptides were dissolved in insect-saline and injected into the ventro-lateral thoracic region of blowflies (mass 16.5–27.0 mg). Thereafter, flies were individually housed in 2 mL tubes and lethality determined after 24 h.
(§1) Tests for oral toxicity in blowflies were performed as described. In short, peptides were dissolved in 5% sucrose and 3 μL of this solution was applied to the inside of a 2 mL tube containing a single fly (mass 16.8–25.3 mg). Flies were kept in the tube overnight without additional food or water until the sucrose solution was consumed. Thereafter, flies were transferred into 250 mL plastic containers and provided with a sugar cube and wet cotton wool. Each box housed 10 flies that received the same treatment. Oral toxicity was determined three days after the oral application. For both injection and oral toxicity assays, three tests were carried for each peptide, and for each test several doses of peptide (n = 10 flies per dose) were used along with appropriate controls (i.e., insect saline or 5% sucrose solution; n = 20–40). LD50 values were calculated as described previously.

[3] = Susceptibility to scrambling of Hv1a and diselenide analogs (buffer with or without GSH); type: physicochemical; settings: for susceptibility to scrambling in the presence of GSH: 1 equivalent GSH; for Correctly Folded Toxin, In Buffer, pH 7.2: 45 μL of 250 μM peptide + 45 μL 0.1 M phosphate buffer pH 7.2, 24 h; for Correctly Folded Toxin, In Buffer, pH 7.2 / Correctly Folded Toxin, With 1 Equivalent GSH, pH 7.2: quenched with 1% TFA, analytical RP-HPLC; for Correctly Folded Toxin, With 1 Equivalent GSH, pH 7.2: 45 μL of 250 μM peptide + 45 μL 0.1 M phosphate buffer pH 7.2 containing 250 μM GSH, 24 h
Description: Peptide (45 μL of a 250 μM solution) was combined with either 45 μL of buffer (0.1 M phosphate buffer, pH 7.2) or 45 μL of buffer containing 250 μM GSH. After 24 h, the reaction was quenched with 1% TFA and the solution analysed using analytical RP-HPLC.

[4] = tested on: sheep blowflies (Lucilia cuprina); assay: Blowfly toxicity assay, oral; type: in vivo; settings: feeding to sheep blowflies; full dose-response curves not determined (Figure 4)
Description: as §1

Sarcophaga flesh flies = settings: cited from earlier work
[5] = 0.1 M phosphate buffer pH 7.2, 24 h, RP-HPLC

Row | Molecule | Lumen to Hemolymph Flux [1] | LD50, injection into sheep blowflies [2] | susceptibility to scrambling in the presence of GSH [3, 5] | Correctly Folded Toxin, In Buffer, pH 7.2 [3] | Correctly Folded Toxin, With 1 Equivalent GSH, pH 7.2 [3] | oral activity compared with native Hv1a [4] | stability in neutral media [3, 5] | ratio oral vs. injection LD50 (Sarcophaga flesh flies)
1 | [C4U,C18U]-Hv1a [1,4-SeSe-Hv1a] | 227 ± 14 pmol/cm^2/h | 407 ± 22 pmol/g | only weakly prone to scrambling | 100% | 85% | – | – | –
2 | [C11U,C22U]-Hv1a [2,5-SeSe-Hv1a] | – | 455 ± 35 pmol/g | only weakly prone to scrambling | 100% | 82% | – | – | –
3 | [C17U,C36U]-Hv1a [3,6-SeSe-Hv1a] | – | 446 ± 12 pmol/g | more susceptible to scrambling | 95% | 60% | significantly lower than native Hv1a | marginal instability | –
4 | AaIT: scorpion toxin AaIT (peptide, UniProt P01497 19-88, looked up) Beta-insect excitatory toxin 1: KKNGYAVDSSGKAPECLLSNYCNNECTKVHYADKGYCCLLSCYCFGLNDDKKVLEISDTRKSYCDTTIIN | – | – | – | – | – | – | – | 714
